Data taken from BindingDB's records for patent US20230416245 (Biointervene, 2023).

Biological target: T1, Adenosine receptor A3 (Homo sapiens, UniProt P0DMS8)
T1 sequence (P0DMS8 whole entry): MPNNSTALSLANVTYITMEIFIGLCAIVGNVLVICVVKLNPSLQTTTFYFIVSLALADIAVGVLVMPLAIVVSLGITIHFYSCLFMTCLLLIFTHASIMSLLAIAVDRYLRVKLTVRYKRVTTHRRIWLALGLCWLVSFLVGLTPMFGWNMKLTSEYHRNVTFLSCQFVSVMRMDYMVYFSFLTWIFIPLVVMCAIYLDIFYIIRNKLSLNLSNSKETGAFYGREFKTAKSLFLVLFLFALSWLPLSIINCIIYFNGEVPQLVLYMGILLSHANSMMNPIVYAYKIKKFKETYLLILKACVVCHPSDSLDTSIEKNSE
Assay: Adenosine Receptor Binding Assay
Description: Radioligand-binding assays were performed using the adenosine A3 receptor agonist [125I]-AB-MECA and the A1 receptor agonist [3H]CCPA. Binding assays were conducted in a total volume of 100 μL containing a 50 mM Tris, pH 7.4 buffer with or without 10 mM MgCl2, 20 μg membranes and either 0.15 nM [125I]-AB-MECA (for the A3 receptor) or 1 nM [3H]CCPA (for the A1 receptor). Assays were conducted at room temperature for 60 min (A1 receptor) or 120 min (A3 receptor) and terminated by the addition of 2 ml of ice-cold wash buffer (50 mM Tris, pH 7.4 with or without 10 mM MgCl2) and rapid filtration over 0.03% polyethylenimine-treated Whatman GF/C filters using a Brandel cell harvester (Semat International Ltd., St Albans, UK). Filters were then washed three times with 2 ml of ice-cold buffer. The filter-bound radioactivity were counted using a Compugamma counter (LKB Wallac, Turku, Finland). Competition experiments were performed to investigate the ability of reference compounds and embodiments of the invention to inhibit [125I]-AB-MECA binding. Non-specific binding were determined using the respective compound at its highest concentration

Ki: 0.23 nM
SMILES: CCNc1cc(Cl)nc2c1ncn2[C@H]1[C@H](O)[C@H](O)[C@]2(C(=O)NC)C[C@H]12 [US20230416245, Compound 59]
